Test results reported in patent publication US8106236B2, “Triaryl compounds and derivates thereof” (Ortho-McNeil Pharmaceutical, Inc., priority 2006, dated 2012).

Legend:
Aβ42 [1] = assay: In vivo Aβ42 lowering, mouse; conditions: oral dose 30 mpk at 4 hr time point, read-out: Mouse Efficacy % Lowering Aβ 42
Excerpt: (§1) To determine whether acute administration of an Aβ42 lowering agent would reduce Aβ42 levels in vivo, non-transgenic rodents, e.g. mice or rats can be used. Alternatively, two to three month old Tg2576 mice expressing APP695 containing the “Swedish” variant can be used or a transgenic mouse model developed by Dr. Fred Van Leuven (K.U.Leuven, Belgium) and co-workers, with neuron-specific expression of a clinical mutant of the human amyloid precursor protein [V717I] (Moechars et al., 1999 J. Biol. Chem. 274, 6483). […] Animals of this age have high levels of Aβ in the brain but no detectable Aβ deposition. Mice treated with the Aβ42 lowering agent will be examined and compared to those untreated or treated with vehicle and brain levels of soluble Aβ42 and total Aβ would be quantitated by standard techniques, for example, using ELISA. Treatment periods may vary from hours to days and will be adjusted based on the results of the Aβ42 lowering once a time course of onset of effect can be established.
(§2) A typical protocol for measuring Aβ42 lowering in vivo is shown but it is only one of many variations that could be used to optimize the levels of detectable Aβ. For example, aliquots of compounds can be dissolved in DMSO (volume equal to 1/10th of the final formulation volume), vortexed and further diluted (1:10) with a 10% (w/v) hydroxypropyl β cyclodextrin (HBC, Aldrich, Ref N° 33,260-7) solution in PBS, where after they are sonicated for 20 seconds.
(§3) Aβ42 lowering agents may be administered as a single oral dose given three to four hours before sacrifice and analysis or alternatively could be given over a course of days and the animals sacrificed three to four hours after the final dose is given.
(§4) Blood is collected at sacrifice. The blood collection is performed via a heart puncture during anesthesia with a mixture of Ketalar (Ketamin), Rompun (Xylazin 2%) and Atropin (2:1:1) and collected in EDTA treated collection tubes. Blood is centrifuged at 4000 g for 5 minutes at 4° C. and the plasma recovered for analysis.
(§5) The mice are anaesthetized with a mixture of Ketalar (Ketamin), Rompun (Xylazin 2%) and Atropin (2:1:1) and flushed trans-cardially with physiological serum at 4° C.
(§6) The brain is removed from the cranium and hindbrain and forebrain are separated with a cut in the coronal/frontal plane. The cerebellum is removed. The forebrain is divided evenly into left and right hemisphere by using a midline sagital cut.
(§7) One hemisphere is immediately immersed in liquid nitrogen and stored at −70° C. until homogenization for biochemical assays.
(§8) Brains are homogenized using a Potter, a glass tube (detergent free, 2 cm^3) and a mechanical homogenizer (650 rpm). A volume of 6.5×½ brain weight of freshly prepared 20 mM Tris/HCl buffer (pH 8.5) with Proteinase Inhibitors (1 tablet per 50 ml Tris/HCl buffer, Complete™, Roche, Mannheim, Germany) is used as homogenization buffer.
(§9) Samples are transferred from −70° C. into a sample holder with liquid nitrogen and each individual sample is pre-warmed by incubation on the bench for a few seconds prior to homogenization. The homogenates are collected in Beckman centrifuge tubes TLX and collected on ice prior to centrifugation. Between two samples, the Potter and the glass tube are rinsed carefully with distilled water without detergents and dried with absorption paper.
(§10) Samples are centrifuged in a pre-cooled ultracentrifuge (Beckman, Mannheim, Germany) for 1 hour and 20 minutes at 48000 rpm (135.000×g) at 4° C. The supernatant (soluble fraction containing secreted APP and amyloid peptides) is separated from the pellet (membrane fraction containing membrane-bound APP-fragments and plaque-associated amyloid peptides in case of aged mice).
(§11) Small reversed phase columns (C18-Sep-Pack Vac 3 cc cartridges, Waters, Mass., MA) are mounted on a vacuum system and washed with 80% acetonitrile in 0.1% Trifluoroacetic acid (A-TFA) followed with 0.1% TFA twice. […]

Aβ42 [2] = assay: In vivo Aβ42 lowering, rat; conditions: oral dose 30 mpk at 4 hr time point
Excerpt: as §1, §2, §3, §4, §5, §6, §7, §8, §9, §10, §11

SMILES | inhibition in vivo at 30 mg/kg (Aβ42 [1]) [%] | Rat Efficacy % Lowering Aβ 42 (Aβ42 [2]) [%]
CC(C)C[C@@H](C(=O)O)c1cc(-c2ccc(C(F)(F)F)cc2)cc(-c2ccc(C(F)(F)F)cc2)c1 [Compound 39, (R)-2-(4,4″-Bis-trifluoromethyl-[1,1′;3′,1″]terphenyl-5′-yl)-4-methyl-pentanoic acid] | 50 | 27
CC(C)C[C@@H](C(=O)O)c1cc(-c2ccc(C(F)(F)F)cc2)cc(-c2cc(C(F)(F)F)cc(C(F)(F)F)c2)c1 [Compound 44, (R)-4-Methyl-2-(3,5,4″-tris-trifluoromethyl-[1,1′;3′,1″]terphenyl-5′-yl)-pentanoic acid] | 40 | −10
CC(C)CC(C(=O)O)c1cc(-c2ccc(C(F)(F)F)cc2)cc(-c2cc(F)c(F)c(F)c2)c1 (stereo not shown) [Compound 14, 4-Methyl-2-(3,4,5-trifluoro-4″-trifluoromethyl-[1,1′;3′,1″]terphenyl-5′-yl)-pentanoic acid] | 58 | 20
CC(C)C[C@H](C(=O)O)c1cc(-c2ccc(C(F)(F)F)cc2)cc(-c2ccc(C(F)(F)F)cc2)c1 [Compound 40, (S)-2-(4,4″-Bis-trifluoromethyl-[1,1′;3′,1″]terphenyl-5′-yl)-4-methyl-pentanoic acid] | 40 | 40
CC(C)CC(C(=O)O)c1cc(-c2ccc(C(F)(F)F)cc2)cc(-c2ccc(C(F)(F)F)cc2)c1 (stereo not shown) [Compound 5, 2-(4,4″-Bis-trifluoromethyl-[1,1′;3′,1″]terphenyl-5′-yl)-4-methyl-pentanoic acid] | 48 | 29
